Source: patent publication US7098372B1, “Pharmaceutical compositions and methods of using secreted frizzled related protein” (Wyeth, priority 1999, dated 2006)

Assays:
human SARP-2 = target: T1, human SARP-2 (Homo sapiens, UniProt Q8N474); test: Reversal of PGE2-accelerated hOB cell death, Coulter cell counter; type: cell-based; settings: co-treatment with PGE2, hOB-03-C5 and hOB-03-CE6 cells
T1 construct: endogenous in cells; host or cells: hOB-03-C5 and hOB-03-CE6 human osteoblast cell lines treated with PGE2
T1 sequence (Q8N474 32-314): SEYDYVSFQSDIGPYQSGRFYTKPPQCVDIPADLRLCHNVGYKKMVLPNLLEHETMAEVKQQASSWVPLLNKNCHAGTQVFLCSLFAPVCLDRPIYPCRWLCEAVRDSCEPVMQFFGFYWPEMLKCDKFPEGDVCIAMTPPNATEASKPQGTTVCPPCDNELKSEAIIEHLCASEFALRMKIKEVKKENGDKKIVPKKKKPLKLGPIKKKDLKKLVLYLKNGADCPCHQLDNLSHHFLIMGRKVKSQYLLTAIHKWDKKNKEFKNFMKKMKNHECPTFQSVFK
Experimental: (§1) These experiments were performed in a similar manner to the ones depicted in FIG. 10. However, for these experiments, the cells were co-treated with either vehicle control (i.e., 0.1% ethanol) or PGE2 in the absence or presence of sense (control) or antisense initiation-site directed phosphorothioate oligonucleotides to human SARP-2. The results are presented as either the % relative to the day 0 control (i.e., ˜200,000 cells per well of a 6 well plate) or as the % relative to the vehicle treated control. The results of this experiment indicate that co-treatment of the hOB cells with the antisense oligonucleotide to SARP-2 reverses the ability of PGE2 to accelerate the rate of cell death, while co-treatment with the sense (control) oligonucleotide as no effect on this process.
as §1, with “The results of this experiment indicate that co-treatment of the hOB cells with the antisense oligonucleotide to SARP-2 reverses the ability of PGE2 to accelerate the rate of cell death, while co-treatment with the sense (control) oligonucleotide as no effect on this process.” left out

hOB SFRP mRNA = hOB SFRP mRNA levels after treatment with various agents (method not given); type: cell-based, human; settings: for effect on hOB SFRP mRNA levels: hOB-03-C5 cells or hOB-03-CE6 cells; for effect on hOB SFRP message expression: various hOB cell lines
hOB-01-C1-PS-09 cells [1] = test: Alkaline phosphatase activity in hOB-01-C1-PS-09 cells; type: cell-based, human
Source text: (§2) Unlike the parental hOB-01-C1 cell line, the hOB-01-C1-PS-09 cells proliferate 2- to 3-times faster at the permissive temperature with a doubling time of once every 2–3 days (FIG. 22A). However, like the parental cells, the hOB-01-C1-PS-09 cells stop dividing at the non-permissive temperature (FIG. 22A). […] Alkaline phosphatase and osteocalcin are two important markers of the osteocytic lineage.
In addition to vitamin D3 and PTH, the hOB-01-C1-PS-09 cells also respond to additional bone-active agents: for example, glucocorticoids and transforming growth factor (TGF)-β1. Treatment of the cells with the synthetic glucocorticoid, dexamethasone, up-regulates alkaline phosphatase activity approximately 2-fold at 34° C. (FIG. 25), and this effect is once again enhanced when the cells are incubated at 39° C.

hOB-01-C1-PS-09 cells [2] = test: Osteocalcin secretion from hOB-01-C1-PS-09 cells; type: cell-based, human
Source text: as §2
However, the secosteroid up-regulates production of this bone-specific matrix protein 11-fold when the cells are incubated at 39° C. It should be noted that the basal levels of alkaline phosphatase expression and osteocalcin secretion by the hOB-01-C1-PS-09 cells are similar to the parental cell line. Thus, both morphologically and biochemically, the hOB-01-C1-PS-09 cells resemble the parental hOB-01-C1 cells and are therefore a reliable in vitro model to study human pre-osteocyte biology.

Wnt signaling = test: TCF-luciferase reporter gene assay of Wnt signaling; type: cell-based, human; settings: transfected cDNA, hOB-01-C1-PS-09 or hOB-02-C1-PS-02 cells
Experimental: SARP-2 or human Frzb-1 expression plasmids downregulates Wnt signaling (when compared to the pcDNA3.1 empty vector control) in the hOB cells as measured by the TCF-luciferase reporter gene assay. This assay is an authentic measurement of Wnt signaling and β-catenin nuclear activity.
In order to determine if the up-regulation of SFRP-1/FRP-1/SARP-2 gene expression results in an antagonism of the Wnt signaling pathway, hOB-03-CE6 cells were treated with PGE2 and the resulting cells probed with β-catenin monoclonal antibody. Overexpression of Wnt proteins in cells up-regulates a signaling protein known as β-catenin (reviewed in Moon et al. 1997 Cell 88: 725–728; Barth et al. 1997 Curr. Opin. Cell Biol. 9: 683–690; and Nusse 1997 Cell 89: 321–323). […] Therefore, hOB-03-CE6 cells were plated and treated with PGE2 as described in Example 1, except that total cellular protein was extracted and a Western blot analysis for β-catenin was performed using a monoclonal antibody to the protein (Transduction Laboratories) as previously described (Bodine et al. 1996 Endocrinology 137: 4592–4604; Melkonyan et al. 1997 Proc. Natl. Acad. Sci. USA 94: 13636–13641). […] Both human and rat SFRP-1/FRP-1/SARP-2, as well as human Frzb-1/FrzB/Fritz, suppressed TCF-luciferase activity in the hOB cells.

In the case of “5′-GCGCCCGATGCCCATGCC-3′ (phosphorothioate, further chemistry not given here) [antisense oligonucleotide to SARP-2, antisense initiation-site directed phosphorothioate oligonucleotide to human SARP-2]”, the “effect on the ability of PGE2 to accelerate the rate of hOB cell death” value (human SARP-2) is reported as “reversed”.

With “5′-GGCATGGGCATCGGGCGC-3′ (phosphorothioate, further chemistry not given here) [sense (control) oligonucleotide, sense (control) initiation-site directed phosphorothioate oligonucleotide to human SARP-2]” the “effect on the ability of PGE2 to accelerate the rate of hOB cell death” value (human SARP-2) was “no effect”.

CC1=C(/C=C/C(C)=C\C=C\C(C)=C\C(=O)O)C(C)(C)CCC1 [9-cis-retinoic acid] was tested, and the “effect on hOB SFRP mRNA levels” value (hOB SFRP mRNA) was “increases”.

For C[C@]12CC[C@@H]3c4ccc(O)cc4CC[C@H]3[C@@H]1CC[C@@H]2O [17β-estradiol], the “effect on hOB SFRP message expression” value (hOB SFRP mRNA) was “suppresses”.

CC1=C(/C=C/C(C)=C/C=C/C(C)=C/C(=O)O)C(C)(C)CCC1 [all-trans-retinoic acid] was tested, and the “effect on hOB SFRP mRNA levels” value (hOB SFRP mRNA) was “increases”.

C[C@@H]1C[C@H]2[C@@H]3CCC4=CC(=O)C=C[C@]4(C)[C@@]3(F)[C@@H](O)C[C@]2(C)[C@@]1(O)C(=O)CO [dexamethasone] was tested, and the “up-regulation of alkaline phosphatase activity” value (hOB-01-C1-PS-09 cells [1]; 34° C.) was “approximately 2 fold”.

In the case of C=C1CC[C@H](O)C/C1=C/C=C1\CCC[C@]2(C)[C@@H]([C@H](C)CCCC(C)C)CC[C@@H]12 [vitamin D3], the “effect on hOB SFRP message expression” value (hOB SFRP mRNA) is reported as “suppresses”, the “enhancement of up-regulation of alkaline phosphatase activity at 39° C.” value (hOB-01-C1-PS-09 cells [1]; cells incubated at 39° C.) is reported as “about 4 fold” and the osteocalcin secretion (hOB-01-C1-PS-09 cells [2]; 34° C.) is reported as “unable to induce”. For the same molecule, the “up-regulation of osteocalcin production” value (hOB-01-C1-PS-09 cells [2]; 39° C.) was 11 fold.

For “insulin-like growth factor (IGF)-I: insulin-like growth factor (IGF)-I”, the “effect on hOB SFRP message expression” value (hOB SFRP mRNA) was “suppresses”.

In the case of “interleukin (IL)-1β: interleukin (IL)-1β”, the “effect on hOB SFRP mRNA levels” value (hOB SFRP mRNA) is reported as “increases”.

B1: human Frzb-1/FrzB/Fritz: human Frzb-1 expression plasmid transfected into hOB cells (protein)
chain: AACEPVRIPLCKSLPWNMTKMPNHLHHSTQANAILAIEQFEGLLGTHCSPDLLFFLCAMYAPICTIDFQHEPIKPCKSVCERARQGCEPILIKYRHSWPENLACEELPVYDRGVCISPEAIVTADGADFPMDSSNGNCRGASSERCKCKPIRATQKTYFRNNYNYVIRAKVKEIKTKCHDVTAVVEVKEILKSSLVNIPRDTVNLYTSSGCLCPPLNVNEEYIIMGYEDEERSRLLLVEGSIAEKWKDRLGKKVKRWDMKLRHLGLSKSDSSNSDSTQSQKSGRNSNPRQARN
B1 was tested, and the TCF-luciferase activity (Wnt signaling) was “suppressed”.
